In patent US9540299B2, “MTOR-independent activator of TFEB for autophagy enhancement and uses thereof” (Hong Kong Baptist University, priority 2015, dated 2017):

Tests used:
[1] = test system: N2a cells; experiment: LC3 puncta and tfLC3 autophagy flux imaging in N2a cells; type: cell-based, mouse
Protocol: N2a cells are treated with E4 (1 μM) in the presence or absence of CQ for 12 hours. The cells are fixed and stained with LC3 antibody (red) and DAPI (blue). Representative cells are then selected and photographed under a DeltaVision Deconvolution Microscope (GE Healthcare).
N2a cells are transiently transfected with mRFP-GFP-LC3 (tfLC3) plasmid and then treated with E4 (1 μM) or CQ (1 μM) for 12 hours. Representative cells are then selected and photographed under a DeltaVision Deconvolution Microscope (GE Healthcare).
After transiently knockdown the expression of TFEB, N2a cells are treated with E4 (1 μM) for 12 hours, the cells were then stained with LC3 antibody (red) and DAPI (blue).
Cells are seeded on coverslips placed in 24-well plates. For autophagy flux assay, cells are transfected with tfLC3 plasmid for 24 hours and then treated with the indicated compounds. For other assays, at the end drug treatment, slices are fixed with 3.7% paraformaldehyde, permeabilized in 0.2% Triton X-100 and blocked with 5% BSA. After blocking, the slices are stained with anti-TFEB (1:200) or anti-LC3 (1:500) antibodies overnight at 4° C. […] Cells are visualized using the Eclipse 80i fluorescence microscope (Nikon Instruments Inc.) or the DeltaVision Deconvolution Microscope (GE Healthcare).

[2] = rat, in vivo, po
Protocol: (§1) All animal care and procedures are approved by the Hong Kong Baptist University Committee on the Use of Human and Animal Subjects in Teaching and Research. Adult male Sprague-Dawley (SD) rats weighted 350-400 g are maintained on ad libitum food and water with a 12-hour light/dark cycle in a controlled environment. For short-term treatment, rats (n=6 per group) are orally administered by gavage with C1 (10 mg/kg and 25 mg/kg per day) or vehicle (1% sodium carbonyl methylcellulose (CMC-Na)) for 24 h. For chronic treatment, C1 (10 mg/kg per day) is given by gavage to rats for 21 days. At the end of each treatment, an additional dosage of C1 is given for 6 h before the rats are killed. Livers and major brain regions dissected are snap-frozen in liquid nitrogen.
The average concentration of C1 in brain tissues is 0.26±0.063 μg/g determined by HPLC after oral administration of C1 (10 mg/kg) for 6 h.
(§2) Rats receive oral administration of C1 (10 mg/kg) for 21 days. Another dose of C1 is given for 6 h and the average concentration of C1 in brain tissues is 0.849±0.302 μg/g. Then the autophagy markers in the livers and brains are analyzed. Chronic C1 treatment increases the levels of LC3-II in the livers (FIGS. 11 A and B). […] During the treatment procedure, no changes in body weight or behavior abnormalities are observed.

[3] = test system: endogenous SNCA; experiment: Chronic (21 days) oral administration in SD rats: autophagy markers, SNCA, tolerability; type: in vivo; conditions: oral 10 mg/kg for 21 days
Protocol: SD rats (n=6 per group) are orally administered by gavage with C1 (10 mg/kg per day) or vehicle (1% CMC-Na) for 21 days. An additional dosage of C1 is given for 6 h before the rats are killed. FIG. 11A is western blots showing the protein levels as indicated in the liver, frontal cortex and striatum. FIG. 11B-11D are quantitative data protein levels in the liver frontal cortex and striatum. Data are presented as the mean±SD (n=6). *p<0.05 vs. the vehicle treatment.
as §1
Cells are lysed on ice in 1× Lysis Buffer (9803, Life Technologies) with complete protease inhibitor mixture (04693124001, Roche Applied Science). Animal tissues are homogenized in nine volumes of ice-cold PBS supplemented with protease inhibitors. Cytosolic and nuclear fractions are isolated using protocols similar to those described previously. Anti-Flag or TFEB antibody is added to the whole cell lysates and Dynabeads® Protein G (10003D, Life Technologies) is used for immunoprecipitation. Proteins are separated by 10-15% SDS-PAGE, transferred, and blotted with the antibodies described. The blots are then incubated with secondary antibodies or the Clean-Blot IP Detection Reagent (21230, Thermo Scientific) at room temperature for 1 h. The protein signals are detected by ECL kit (32106, Pierce) and quantified using ImageJ software.
as §2

Compound | mRFP-GFP-LC3 (tfLC3) puncta (autophagy flux, autolysosome formation) ([1]; N2a cells transfected with tfLC3, 12 hours) | LC3 punctuates in the presence of CQ ([1]; N2a cells, 1 μM, 12 hours) | LC3 punctuates compared to vehicle control ([1]; N2a cells, 1 μM, 12 hours, endogenous LC3 staining) | passage of the blood-brain barrier (BBB) [2] | body weight or behavior abnormalities during treatment [3] | histological evaluation of major organs (liver, lungs, kidneys, and pancreas) [3] | levels of LC3-II in the livers [3] | levels of TFEB and LC3-II in frontal cortex and striatum [3] | levels of endogenous SQSTM1/p62 and SNCA in rats' brains [3]
O=C(/C=C/c1ccccc1I)/C=C/c1ccccc1I [E4] | significantly increases the number of red-only puncta | further enhances | significantly increases |  |  |  |  |  | 
COc1ccccc1/C=C/C(=O)/C=C/c1ccccc1OC [C1, 1,5-bis(2-methoxyphenyl)penta-1,4-dien-3-one] |  |  |  | can pass | no changes | do not reveal any morphological abnormalities | increases | significantly increases | significantly decrease
